From patent publication US20240148711A1, “COMPOSITION COMPRISING BETA BLOCKER AND CHOLINESTERASE INHIBITOR FOR TREATMENT OF NEURODEGENERATIVE DISEASE” (DR. NOAH BIOTECH INC., priority 2022, published 2024)

Assays:
[1] = test system: neuroblasts (SH-SY5Y); experiment: ROS generation after H2O2 oxidative stress (DCF fluorescence); type: cell-based; details: compared to the control group
[2] = test system: Immortalized human neural progenitor cell line (ReNcell VM); experiment: Differentiation of neural progenitor cells into motor neurons (HB9 immunostaining / CellTag); type: cell-based; details: compared to the control group
Experimental: Immortalized human neural progenitor cell line (ReNcell VM) as a neural progenitor cell that may differentiate into neurons and glial cells was treated with nebivolol alone, donepezil alone, and nebivolol+donepezil combination. Thereafter, immunostaining was performed using an antibody capable of selectively binding to motor neurons (anti-HB9 antibody) and a CellTag probe that stains whole cells. Thereafter, the HB9 positive signal and the value of CellTag were analyzed to determine the number of motor neurons among the total cells, thereby measuring the degree of differentiation of neural precursor cells into motor neurons.

[3] = test system: microglia (BV2 cells); experiment: NO generation in LPS-treated microglia (anti-inflammatory effect); type: cell-based; details: BV2 cells treated with LPS and drug at the same time; compared to the LPS control group
Experimental: Microglia (BV2 cells) were treated with LPS to cause an inflammatory response and, at the same time, treated with nebivolol alone, donepezil alone, or nebivolol+donepezil combination to measure the concentration of generated NO.

[4] = test system: SOD1G93A transgenic mice; experiment: Rotarod latency test in ALS animal model; type: in vivo; details: oral once daily from 70 days of age for 70 days, edaravone 15 mg/kg, NDC-011 nebivolol 5 mg/kg+donepezil 3 mg/kg, compared to the normal control group
Experimental: SOD1G93A transgenic mice as ALS animal models were used to verify the in vivo efficacy of the nebivolol and donepezil complex. Edaravone (15 mg/kg) as a commercially available ALS treatment, or a nebivolol and donepezil complex (NDC-011, nebivolol 5 mg/kg+donepezil 3 mg/kg) according to the present invention was administered to mice from 70 days of age once daily. Each dose was orally administered for 70 days. The rotarod latency test was performed immediately before the start of drug administration to evaluate the motor ability of each animal, and, thereafter, the rotarod latency test was performed during the drug administration period at 7-day intervals to evaluate the motor ability of the ALS animals.

[5] = ReNcell VM, low concentration (0.01 μM) of nebivolol or donepezil alone

Row | Structure (SMILES) | amount of generated reactive oxygen species (ROS) [1] | HB-9 expression (motor neuron marker) [2, 5] | concentration of generated NO [3] | age from which exercise capacity decreased (rotarod latency) [4] [days] | HB-9 expression (motor neuron marker) ([2]; ReNcell VM under differentiation conditions)
1 | COc1cc2c(cc1OC)C(=O)C(CC1CCN(Cc3ccccc3)CC1)C2 (centres unmarked) [donepezil, Donepezil] | no significant decrease | not observed | significant reduction in NO |  | 
2 | CC1=NN(c2ccccc2)C(=O)C1 [edaravone, Edaravone] |  |  |  | 84 | 
3 | OC(CNCC(O)C1CCc2cc(F)ccc2O1)C1CCc2cc(F)ccc2O1 (centres unmarked) [nebivolol, Nebivolol] | no significant decrease | not observed | significant reduction in NO |  | significant increase in HB-9 expression
